Results from patent US20250041284A1, “TREATMENT OF NEUROLOGICAL DISORDERS” (Praxis Precision Medicines, Inc., priority 2022, published 2025).
“Also recorded” adds a separate entry of the source. Read-outs that look alike come from different tables or passages of the source.

Assays:
human NaV1.6 [1] = target: T1, human NaV1.6 (Homo sapiens, UniProt Q9UQD0); test: Persistent (late) INa inhibition, ATX-II activated, automated patch clamp in HEK cells; format: cell-based; conditions: for Persistent INa Hill slope: hNaV1.6 in HEK cells, ATX-II
T1 construct: HEK-293 cell lines stably expressing human NaV1.6 (NP_055006) were used; expressed in transfected cells

human NaV1.6 [2] = target: T1, human NaV1.6; test: Peak INa tonic block (TB), automated patch clamp in HEK cells; format: cell-based; conditions: for Ratio to Pers. INa (Peak INa TB): peak INa TB IC50 / persistent INa IC50; for Peak INa TB Hill slope: tonic block
human NaV1.6 [3] = target: T1, human NaV1.6; test: Peak INa use-dependent block (UDB-10 Hz), automated patch clamp in HEK cells; format: cell-based; conditions: for UDB preference to TB: TB IC50 / UDB IC50; for Ratio to Pers. INa (Peak INa UDB-10 Hz): UDB IC50 / persistent INa IC50; for activity dependent block of peak INa: in words, FIGS. 7A-7C; for Peak INa UDB-10 Hz Hill slope: use-dependent block 10 Hz
hNaV1.6 [4] = target: T2, hNaV1.6 (Homo sapiens, UniProt Q9UQD0); test: Peak INa voltage-dependent block (VDB), automated patch clamp in HEK cells; format: cell-based; conditions: for Ratio to Pers. INa (Peak INa VDB): VDB IC50 / persistent INa IC50; for Peak INa VDB Hill slope: voltage-dependent block
T2 construct: expressed in transfected cells; host or cells: HEK cells

hNaV1.6 [5] = target: T2, hNaV1.6; test: Apparent binding (KON) and unbinding (KOFF) rates inferred from INa inhibition kinetics; format: cell-based; conditions: read-out: apparent KON
[6] = system: MES-induced tonic hindlimb extension in male CD-1 mice; test: MES acute seizure model, protection from tonic hindlimb extension (Example 9); format: in vivo, mouse; conditions: for ED50: Mus musculus, administered dose
Experimental: Male CD-1 mice (Vital River, Beijing, China) approximately 6 weeks old were obtained for the study. Body weights were between 20.5 grams and 38.5 grams at the time the experiments were carried out. […] Food and water were available ad libitum.
Treatment was conducted using Compound 1 and 35% 2-hydroxypropyl-β-cyclodextrin (35% HPBCD, used as a negative control). Compound 1 stock solution was prepared fresh each experiment day in 35% HPBCD and protected from light. The stock solution was diluted with vehicle for lower doses.
Mice were brought to the test room at least one hour before the start of the experiment. Mice were administered valproate (VPA; 400 mg/kg, intraperitoneally); or vehicle (35% HPBCD, 10 mL/kg, intraperitoneally); or Compound 1 (0.3 mg/kg, 1 mg/kg, 3 mg/kg or 10 mg/kg, orally) 30 minutes prior to the MES test.
The electroshock apparatus was set to deliver a 50 mA square-wave stimulus, with a 0.8 second duration, a pulse width of 10 milliseconds, and a frequency of 50 Hz. A pair of custom stainless-steel electrodes were soaked in 0.2% agar, and then the subject received bilateral transauricular stimulation through ear-clip electrodes. During the stimulation, mice were manually restrained then released immediately into an observation cage where they were monitored continuously for 60 seconds by an observer blinded to treatment group.
Mice were anesthetized with CO2 and terminal plasma and brain tissue samples were collected. […] The supernatant plasma was pipetted into Eppendorf tubes.
All statistical analyses were conducted using GraphPad Prism 9.3. Means were combined and standard error was calculated using the Satterthwaite Approximation to combine standard deviations. […] ED50 and EC50 values were calculated from these fit curves.

[7] = system: psychomotor seizures induced by 6-Hz electrical stimulation in wild-type CD-1 mice; test: 6-Hz psychomotor seizure model; format: in vivo, mouse; conditions: 600 mg/kg intraperitoneally
From the text: This study evaluated the efficacy of Compound 1 in attenuating psychomotor seizures induced by 6-Hz electrical stimulation at two different stimulation intensities (32 and 44 mA) in wild-type CD-1 mice. Psychomotor seizures are defined as the expression of at least one of the following behaviors: stun/immobility, forelimb clonus, straub tail or lateral head movement within 30 seconds of the stimulus. Protection is defined as a complete absence of the above behaviors within 30 seconds of the stimulus. Doses of Compound 1 used were 1 mg/kg, 3 mg/kg and 6 mg/kg administered orally. Valproate (600 mg/kg, administered intraperitoneally) was used as a positive control.
Male CD-1 mice (Charles River Laboratories; St. Constant, Quebec, CAN) were used for the study. Body weights at the time the experiment was carried out were 30-40 grams. The mice were group-housed in polycarbonate cages according to standard operating procedures. Animals were maintained on a 12-hour light/12 hour dark cycle, with all experimental activities occurring during the light phase. Food and water were available ad libitum. Mice acclimated to the test facility for at least 72 hours prior to testing.
Treatment was conducted using Compound 1 and 35% 2-hydroxypropyl-β-cyclodextrin (35% HPBCD, used as a negative control). Compound 1 stock solution was prepared fresh each experiment day in 35% HPBCD. […] Valproate was prepared fresh each experiment day in a vehicle of saline and dosed at 10 mL/kg.
Mice were administered vehicle (35% HPBCD), a single dose of Compound 1 (1 mg/kg, 3 mg/kg or 6 mg/kg) or valproate (600 mg/kg). Vehicle and Compound 1 were administered via oral gavage 30 minutes prior to […]. Valproate was administered as an intraperitoneal injection 60 minutes prior to the electrical stimulus.
Immediately prior to conducting the 6-Hz seizure test, a brief neurological assessment was performed. Each animal was visually assessed and received a score from 0 to 3 according to the following scoring system::neurological score of 0 corresponds to a normal status; neurological score of 1 corresponds to a modest decrease in spontaneous activity; neurological score of 2 corresponds to a marked decrease in spontaneous activity; and neurological score of 3 corresponds to loss of righting reflex.
Corneal electrodes moistened with saline (ECT unit 57800; Ugo Basile) were used to deliver the electrical stimulus (6-Hz, 0.2 millisecond pulse width, 3 seconds duration). The current delivered was either 32 mA or 44 mA. Immediately after the electrical stimulus, each mouse was monitored continuously for 30 seconds by an observer blinded to the treatment group. […] Mice were scored for the presence or absence of each seizure behavior, with a maximum total score of 4. […] At the end of the 6-Hz seizure test, plasma and brain samples were collected.
Mice were anesthetized with isoflurane, whole blood was collected via cardiac puncture and brains were harvested. Whole blood was collected in potassium EDTA tubes and centrifuged at ˜3300 g for 5 minutes at 4° C. to isolate plasma. Plasma and brain samples were stored at −80° C. and analyzed to determine levels of Compound 1.
All statistical analyses were conducted using GraphPad Prism 9.3. Seizure scores were compared using Kruskal-Wallis test, followed by Dunn's post hoc and p<0.05 was considered statistically significant.

[8] = 400 mg/kg intraperitoneally, listed as valproate

T1 sequence (Q9UQD0 whole entry): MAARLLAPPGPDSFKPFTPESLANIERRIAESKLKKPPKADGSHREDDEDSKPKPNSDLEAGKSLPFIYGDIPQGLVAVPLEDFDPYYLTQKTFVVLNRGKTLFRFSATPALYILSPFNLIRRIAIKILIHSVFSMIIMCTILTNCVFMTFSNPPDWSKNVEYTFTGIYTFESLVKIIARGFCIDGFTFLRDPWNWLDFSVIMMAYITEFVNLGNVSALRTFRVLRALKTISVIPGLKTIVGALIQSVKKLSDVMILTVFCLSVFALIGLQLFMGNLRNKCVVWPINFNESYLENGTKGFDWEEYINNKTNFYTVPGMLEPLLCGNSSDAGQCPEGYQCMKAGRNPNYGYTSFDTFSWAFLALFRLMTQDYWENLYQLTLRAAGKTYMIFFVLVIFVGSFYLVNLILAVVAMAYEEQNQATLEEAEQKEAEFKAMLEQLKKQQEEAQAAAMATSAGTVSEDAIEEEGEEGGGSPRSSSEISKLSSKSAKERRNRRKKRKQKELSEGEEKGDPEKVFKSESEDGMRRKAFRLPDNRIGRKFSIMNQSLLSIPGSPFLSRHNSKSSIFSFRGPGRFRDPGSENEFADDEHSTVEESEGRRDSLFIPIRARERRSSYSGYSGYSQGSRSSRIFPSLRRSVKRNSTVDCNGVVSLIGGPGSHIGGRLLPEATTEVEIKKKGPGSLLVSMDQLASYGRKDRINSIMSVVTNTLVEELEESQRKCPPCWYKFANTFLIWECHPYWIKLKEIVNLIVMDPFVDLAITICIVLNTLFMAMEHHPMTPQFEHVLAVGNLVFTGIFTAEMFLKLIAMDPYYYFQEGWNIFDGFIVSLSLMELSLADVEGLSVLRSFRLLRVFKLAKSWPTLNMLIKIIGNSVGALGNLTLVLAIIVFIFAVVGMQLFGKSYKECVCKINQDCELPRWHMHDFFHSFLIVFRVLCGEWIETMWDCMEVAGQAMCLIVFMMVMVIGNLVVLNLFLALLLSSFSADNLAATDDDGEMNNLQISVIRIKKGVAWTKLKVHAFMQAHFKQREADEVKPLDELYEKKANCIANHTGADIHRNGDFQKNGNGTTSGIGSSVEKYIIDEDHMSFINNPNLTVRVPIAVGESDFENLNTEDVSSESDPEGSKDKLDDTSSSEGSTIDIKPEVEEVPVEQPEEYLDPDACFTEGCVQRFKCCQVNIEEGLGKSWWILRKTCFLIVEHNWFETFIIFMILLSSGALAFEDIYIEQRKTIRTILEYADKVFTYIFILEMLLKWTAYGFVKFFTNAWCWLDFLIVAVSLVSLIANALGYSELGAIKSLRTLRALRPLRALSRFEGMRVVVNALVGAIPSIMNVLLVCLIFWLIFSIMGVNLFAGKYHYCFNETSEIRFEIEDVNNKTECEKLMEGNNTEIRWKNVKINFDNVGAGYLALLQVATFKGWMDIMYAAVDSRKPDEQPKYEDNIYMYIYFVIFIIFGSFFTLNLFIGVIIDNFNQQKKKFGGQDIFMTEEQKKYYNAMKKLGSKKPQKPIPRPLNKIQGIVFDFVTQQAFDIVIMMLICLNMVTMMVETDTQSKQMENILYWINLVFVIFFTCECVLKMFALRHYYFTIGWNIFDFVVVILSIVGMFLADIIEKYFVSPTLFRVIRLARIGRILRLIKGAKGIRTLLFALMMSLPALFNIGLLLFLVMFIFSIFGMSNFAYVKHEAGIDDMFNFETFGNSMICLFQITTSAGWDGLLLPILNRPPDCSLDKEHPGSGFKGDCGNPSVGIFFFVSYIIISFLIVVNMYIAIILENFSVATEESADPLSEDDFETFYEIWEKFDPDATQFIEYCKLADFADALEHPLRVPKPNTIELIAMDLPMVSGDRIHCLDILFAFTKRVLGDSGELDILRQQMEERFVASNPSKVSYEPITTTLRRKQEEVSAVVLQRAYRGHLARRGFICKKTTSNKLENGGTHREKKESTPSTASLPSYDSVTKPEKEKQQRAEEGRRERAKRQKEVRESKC
T2 sequence (Q9UQD0 whole entry): as above

SMILES: NC(=O)N1c2ccccc2C=Cc2ccccc21 [Carbamazepine, carbamazepine]
- Persistent INa Hill slope (human NaV1.6 [1]): (1.1)
- preference for persistent INa relative to peak INa (human NaV1.6 [1]; in words, FIGS. 1A-1D): no preference for persistent INa
- Ratio to Pers. INa (Peak INa TB) (human NaV1.6 [2]): 30
- Peak INa TB Hill slope (human NaV1.6 [2]): (1.0)
- UDB preference to TB (human NaV1.6 [3]): no UDB observed
- Ratio to Pers. INa (Peak INa UDB-10 Hz) (human NaV1.6 [3]): 18
- activity dependent block of peak INa (human NaV1.6 [3]): minimal activity dependent block of peak INa
- Peak INa UDB-10 Hz Hill slope (human NaV1.6 [3]): (0.9)
- Ratio to Pers. INa (Peak INa VDB) (hNaV1.6 [4]): 0.6
- Peak INa VDB Hill slope (hNaV1.6 [4]): (0.9)
- kon (hNaV1.6 [5]; development of inhibition of hNaV1.6 INa): 11000 M⁻¹ s⁻¹
- ED50 [6]: 5.4 mg/kg

SMILES: NC(=O)O[C@@H](Cn1ncnn1)c1ccccc1Cl [Cenobamate, cenobamate]
- Persistent INa Hill slope (human NaV1.6 [1]): (1.1)
- Ratio to Pers. INa (Peak INa TB) (human NaV1.6 [2]): 24
- Peak INa TB Hill slope (human NaV1.6 [2]): (1.1)
- UDB preference to TB (human NaV1.6 [3]): 2.3 ×
- Ratio to Pers. INa (Peak INa UDB-10 Hz) (human NaV1.6 [3]): 11
- Peak INa UDB-10 Hz Hill slope (human NaV1.6 [3]): (0.7)
- Ratio to Pers. INa (Peak INa VDB) (hNaV1.6 [4]): 0.9
- Peak INa VDB Hill slope (hNaV1.6 [4]): (0.9)
- kon (hNaV1.6 [5]): 19000 M⁻¹ s⁻¹
- ED50 [6]: 4.1 mg/kg

SMILES: COC[C@@H](NC(C)=O)C(=O)NCc1ccccc1 [Lacosamide, lacosamide]
- Persistent INa Hill slope (human NaV1.6 [1]): (0.9)
- Ratio to Pers. INa (Peak INa UDB-10 Hz) (human NaV1.6 [3]): 0.8
- Peak INa UDB-10 Hz Hill slope (human NaV1.6 [3]): (1.3)
- Ratio to Pers. INa (Peak INa VDB) (hNaV1.6 [4]): 0.3
- Peak INa VDB Hill slope (hNaV1.6 [4]): (1.2)

SMILES: Nc1nnc(-c2cccc(Cl)c2Cl)c(N)n1 [Lamotrigine, lamotrigine]
- Persistent INa Hill slope (human NaV1.6 [1]): (1.0)
- Peak INa TB Hill slope (human NaV1.6 [2]): (0.8)
- activity dependent block of peak INa (human NaV1.6 [3]): minimal activity dependent block of peak INa
- Peak INa UDB-10 Hz Hill slope (human NaV1.6 [3]): (1.0)
- Peak INa VDB Hill slope (hNaV1.6 [4]): (0.9)
- ED50 [6]: 3.8 mg/kg

SMILES: NC(=O)N1c2ccccc2CC(=O)c2ccccc21 [Oxcarbazepine, oxcarbazepine]
- Persistent INa Hill slope (human NaV1.6 [1]): (1.0)
- Ratio to Pers. INa (Peak INa TB) (human NaV1.6 [2]): 8
- Peak INa TB Hill slope (human NaV1.6 [2]): (1.7)
- Ratio to Pers. INa (Peak INa VDB) (hNaV1.6 [4]): 0.3
- Peak INa VDB Hill slope (hNaV1.6 [4]): (1.1)

SMILES: O=C1NC(=O)C(c2ccccc2)(c2ccccc2)N1 [Phenytoin, phenytoin]
- Persistent INa Hill slope (human NaV1.6 [1]): (0.8)
- Ratio to Pers. INa (Peak INa UDB-10 Hz) (human NaV1.6 [3]): 15
- Peak INa UDB-10 Hz Hill slope (human NaV1.6 [3]): (0.6)
- Ratio to Pers. INa (Peak INa VDB) (hNaV1.6 [4]): 0.8
- Peak INa VDB Hill slope (hNaV1.6 [4]): (1.0)

SMILES: CCCC(CCC)C(=O)O [Valproic acid]
- sedation before MES test ([6]; 400 mg/kg intraperitoneally, listed as Valproate): mild to moderate sedation
- protection against MES-induced hindlimb extension [6, 8]: all mice n=24 were seizure-free; also recorded: protected mice from MES-induced tonic hindlimb extension
- sedation before MES test [6, 8]: nearly all valproate-treated mice showed mild to moderate sedation
- neurological score (average) [7]: 1.2
- spontaneous activity [7]: modest to marked decrease in spontaneous activity

SMILES: Cc1cc(N2CCc3cc(F)ccc3C2)cc(C)c1NC(=O)CC(C)(C)C [XEN1101]
- ED50 [6]: 3.9 mg/kg
